Results published in PubChem BioAssay AID1996.
Values after ≈ are worked out from the molar mass of the structure shown.

Conditions: buffer; pH 7.4; 200.0 µM
`Cc1ccc(Nc2c(-c3ccccc3O)nc3ncccn23)cc1` showed a solubility kinetic of 0.7 µg/mL (≈ 2.21 µM).
Compound `O=C(c1ccc(F)cc1)N(Cc1ccco1)C1CCS(=O)(=O)C1` (centres undefined) has a solubility kinetic of over 50.6 µg/mL.
For `CCc1cccc(NC(=O)C2CCCN2C(=O)Nc2ccc(C)cc2)c1` (centres undefined), the solubility kinetic was 1.2 µg/mL (≈ 3.41 µM).
Compound `COc1ccc(/C=C/C(=O)NC(CCSC)C(=O)O)cc1` (centres undefined) has a solubility kinetic of over 46.4 µg/mL.
Compound `CCN(C(=O)Cn1c(=O)oc2ccccc21)c1cccc(C)c1` has a solubility kinetic of over 46.6 µg/mL.
For `COc1ccc(N2CCN(C(CNC(=O)C(C)(C)C)c3ccco3)CC2)cc1` (centres undefined), the solubility kinetic was 54.8 µg/mL (≈ 142 µM).
`O=C(CN1C(=O)COc2ccccc21)NCCN1CCCC1` gave a solubility kinetic of over 45.5 µg/mL.
For `CC(C)c1ccc(CNc2ccc3c(c2)ncn3C)cc1`, the solubility kinetic was 22 µg/mL (≈ 78.7 µM).
In the case of `CC(C)c1ccc(NC(=O)C2C3C=CC(CC3)C2C(=O)O)cc1` (centres undefined), the solubility kinetic is reported as 3.2 µg/mL (≈ 10.2 µM).
With `Cc1ccc(C(=O)C(C)OC(=O)Cn2c(C)csc2=O)cc1` (centres undefined) the solubility kinetic was over 47.9 µg/mL.
Compound `COC(=O)c1sc(-c2ccccc2)cc1NC(C)=O` has a solubility kinetic of 1.7 µg/mL (≈ 6.17 µM).
For `COc1cccc(NC(=O)COC(=O)c2sccc2C)c1`, the solubility kinetic was 12.2 µg/mL (≈ 40 µM).
`COc1ccc(NC(=S)NC2CCCCC2)c(OC)c1` gave a solubility kinetic of over 44.2 µg/mL.
`CC(C)(C)C(=O)Nc1cccc(-c2ncon2)c1` showed a solubility kinetic of over 36.8 µg/mL.
In the case of `CN1CCN(C(=O)CCC(=O)NCc2ccc(F)cc2)CC1`, the solubility kinetic is reported as 45.7 µg/mL (≈ 149 µM).
Compound `O=C(COc1ccccc1Cl)NCCNC(=O)c1ccncc1` has a solubility kinetic of over 50.1 µg/mL.
For `Cc1ccc(N(CCO)C(=S)Nc2ccccc2)cc1`, the solubility kinetic was over 43 µg/mL.
With `Cc1cc(C)c(NC(=S)N(CCc2ccncc2)C(C)C)c(C)c1` the solubility kinetic was 48.8 µg/mL (≈ 143 µM).
Work on `CN1C(=O)NC(=O)/C(=C/c2ccc(C(=O)O)cc2)C1=O` yielded a solubility kinetic of over 41.1 µg/mL.
With `COc1ccccc1C(=O)COC(=O)CN1C(=O)C2CC=CCC2C1=O` (centres undefined) the solubility kinetic was 52 µg/mL (≈ 146 µM).
Work on `Cc1nnc(NC(=O)CCNC(=O)c2ccccc2Cl)s1` yielded a solubility kinetic of over 48.7 µg/mL.
Compound `CC(=O)Nc1ccc(C(=O)OCCc2ccccc2)cc1` has a solubility kinetic of 38.8 µg/mL (≈ 137 µM).
For `Cc1ccc(OCCC(=O)OC(C)C(=O)NC2CC2)cc1` (centres undefined), the solubility kinetic was over 43.7 µg/mL.
For `CCOC(=O)c1cc(C(C)(C)C)n(CCCN2CCOCC2)c1C`, the solubility kinetic was 47.5 µg/mL (≈ 141 µM).
For `Cc1cc(C=O)c(C)n1-c1ccc(NC2CCCC2)c([N+](=O)[O-])c1`, the solubility kinetic was 5.1 µg/mL (≈ 15.6 µM).
In the case of `Cc1ccc2[nH]c(CCN(C)C)c(CN3CCOCC3)c2c1`, the solubility kinetic is reported as over 45.2 µg/mL.
`Cc1cccc(Nc2nc(N)c([N+](=O)[O-])c(NCc3ccccc3)n2)c1` showed a solubility kinetic of 0.7 µg/mL (≈ 2 µM).
Compound `Cc1cc(C)nc(/N=C(\NC(=O)C(C)(C)C)Nc2ccc(F)cc2)n1` has a solubility kinetic of 0.5 µg/mL (≈ 1.46 µM).
`CNC(=S)N(Cc1ccccc1)Cc1cccnc1` showed a solubility kinetic of 39 µg/mL (≈ 144 µM).
In the case of `O=[N+]([O-])c1ccccc1S(=O)(=O)NCCc1ccncc1`, the solubility kinetic is reported as 43.8 µg/mL (≈ 143 µM).
Work on `Cc1ccc(-n2cnc3sc(C)c(C)c3c2=O)cc1` yielded a solubility kinetic of 0.8 µg/mL (≈ 2.96 µM).
With `CC(=O)Nc1ccc(NS(=O)(=O)c2ccc(C)cc2)c([N+](=O)[O-])c1` the solubility kinetic was over 52.4 µg/mL.
Work on `CCCCNC(=O)N1CCCN(c2ccc(C#N)cn2)CC1` yielded a solubility kinetic of over 45.2 µg/mL.
For `Cc1ccc(CN2C(=O)CSC2c2ccccc2F)cc1` (centres undefined), the solubility kinetic was 14 µg/mL (≈ 46.5 µM).
`O=C1CN=C(c2ccc(Cl)cc2)c2oc3ccccc3c2N1` showed a solubility kinetic of under 0.3 µg/mL.
Work on `Cn1c(O)c(C(=Nc2ccc(F)cc2)c2ccccc2Cl)c(=O)n(C)c1=O` yielded a solubility kinetic of 1.8 µg/mL (≈ 4.64 µM).
With `CN(C(=O)COC(=O)c1ccc(Cl)nc1)C1CCS(=O)(=O)C1` (centres undefined) the solubility kinetic was over 52 µg/mL.
Work on `S=C(Nc1nc2c(s1)CCCC2)NC1CC1` yielded a solubility kinetic of 5.7 µg/mL (≈ 22.5 µM).
With `COc1ccc(C(=O)CC(=O)C(=O)Nc2ccc(Cl)cc2)cc1` the solubility kinetic was 5.5 µg/mL (≈ 16.6 µM).
`COc1ccc(C(=O)N2CCC(c3ccccc3)CC2)c(OC)c1OC` showed a solubility kinetic of 47.6 µg/mL (≈ 134 µM).
For `COc1ccc(CCC(=O)N2CCN(c3ccc(OC)cc3)CC2)cc1`, the solubility kinetic was 41 µg/mL (≈ 116 µM).
Compound `COc1cccc(C(=O)OCC(=O)c2[nH]c(C)c(C(C)=O)c2C)c1` has a solubility kinetic of 2.1 µg/mL (≈ 6.38 µM).
Compound `Cc1ccc(CC2CC(=O)N(c3nc(C)cc(C)n3)C2=O)cc1` (centres undefined) has a solubility kinetic of over 46.4 µg/mL.
`Cc1ccc(CCC(=O)Nc2ccc([N+](=O)[O-])cc2Cl)o1` gave a solubility kinetic of 7.5 µg/mL (≈ 24.3 µM).
In the case of `CC(=O)c1ccc(NC(=O)C(C)Sc2ccccn2)cc1` (centres undefined), the solubility kinetic is reported as over 45.1 µg/mL.
In the case of `CC1=CC(C)(C)N(C(=O)CN2C(=O)CCC2=O)c2ccccc21`, the solubility kinetic is reported as over 46.9 µg/mL.
Compound `CCN1/C(=C\C(=S)Nc2ccccc2)Sc2ccccc21` has a solubility kinetic of 20.7 µg/mL (≈ 66.2 µM).
Work on `CC1=C(C(=O)OC2CCCCC2)C(c2ccccc2)NC(=O)N1` (centres undefined) yielded a solubility kinetic of 11.3 µg/mL (≈ 35.9 µM).
Work on `O=C(COc1ccccc1[N+](=O)[O-])OCC(=O)c1ccc(Br)s1` yielded a solubility kinetic of 59.9 µg/mL (≈ 150 µM).
Compound `Cc1cccc(CC(C)NC(=O)CCc2nnc(-c3ccccc3)o2)n1` (centres undefined) has a solubility kinetic of over 52.6 µg/mL.
Compound `N#Cc1c(-c2cccc(Cl)c2)[nH]c(=S)[nH]c1=O` has a solubility kinetic of over 39.6 µg/mL.
Work on `O=C(NCCc1ccc(Cl)cc1)C(=O)c1c[nH]c2ccccc12` yielded a solubility kinetic of 2.1 µg/mL (≈ 6.43 µM).
Work on `CC1(C)COC2(OC1)C(=O)Nc1ccccc12` yielded a solubility kinetic of over 35 µg/mL.
With `O=C(Cn1ccc([N+](=O)[O-])n1)Nc1nc2ccccc2s1` the solubility kinetic was over 45.5 µg/mL.
Work on `Cc1ccc(CNC(=O)c2cncc(Br)c2)cc1` yielded a solubility kinetic of 9.6 µg/mL (≈ 31.5 µM).
For `O=C(Nc1ccc(Cl)cc1)N1CCCC(Cn2cccc2)C1` (centres undefined), the solubility kinetic was over 47.7 µg/mL.
Compound `Nc1ccc(-c2ncc(-c3ccccc3)o2)cc1` has a solubility kinetic of 4.3 µg/mL (≈ 18.2 µM).
`CC(=O)C1C(c2ccc(F)cc2)c2c(noc2C)CC1(C)O` (centres undefined) gave a solubility kinetic of over 45.5 µg/mL.
Work on `COC(=O)c1ccccc1N=Cc1c(O)[nH]c(=S)[nH]c1=O` yielded a solubility kinetic of 6.1 µg/mL (≈ 20 µM).
